In patent publication US20250032425A1, “FIRST IN CLASS USE OF ESTROGEN RECEPTOR BETA AGONISTS IN TREATING ANGELMAN SYNDROME AND RELEVANT AUTISM SPECTRUM DISORDERS” (BROWN UNIVERSITY, priority 2023, published 2025):
Entries after “also recorded” stand apart in the source; their conditions may differ.

Test system: AS iOPCs (UBE3A truncation mutation)
Experiment: Proliferation of AS patient-derived iOPCs (EdU, Ki67)
Format: cell-based, human
Details: 10 μM, 24 hours, vs vehicle
Excerpt: FIGS. 25A-25I depict the role of UBE3A via ESR-β signaling on OPC proliferation and oligodendrocyte differentiation. FIG. 25A: qPCR to evaluate the differentiation and maturation for myelination of iOPCs after persistent UBE3A knockdown, by measuring mRNA transcripts of UBE3A and myelination markers MBP and PLP1 in iOPCs treated with siNC or siUBE3A and differentiated in vitro. MBP and PLP1 mRNA expression decreased in iOLs treated with siUBE3A. n=3 independent experiments. FIG. 25B: In vitro myelination assays analyzed the effect of persistent UBE3A knockdown on iOPCs differentiation and maturation in nano-fiber-based cultures, with immunofluorescent staining of MBP (magenta) and DAPI (blue) and imaging of nano-fibers (grey). Quantification by the area (left graph) and density (right graph) of MBP fluorescent signals (normalized to siNC=1.0). MBP area and intensity decreased in cells treated with siUBE3A. n=3 experiments. Scale bar: 25 μm. […] Protein levels of ESR-β in UBE3A-deficient iOPCs and subsequently differentiated iOLs were quantified, normalized against the loading control GAPDH, and expressed relative to the iOPC+siNC control condition (set at 1.0). […] Levels of Ki67 and Myelin Associated Glycoprotein (MAG) were measured in UBE3A-deficient iOPCs and iOLs differentiated from them, normalized against GAPDH, and compared to the iOPC+siNC condition. n=4 experiments. […]

Compound: Oc1ccc(C2(c3ccccc3F)CCC(F)(F)CC2)cc1 [AC-186]
- ratio of EdU positive iOPCs (proliferation) (AS iOPCs): significantly enhanced the proliferation; also recorded: increased
- Ki67 expression (AS-derived OPCs): increased Ki67 expression
